Source: patent publication US10793576B2, “Compound used as Bruton's tyrosine kinase inhibitor and preparation method and application thereof” (Chengdu Brilliant Pharmaceutical Co., LTD., priority 2017, dated 2020)
One block for each molecule: values may come before it.

Assays:
BTK kinase = BTK kinase (Homo sapiens (Human), UniProt Q06187); assay: In vitro assay for the inhibition of BTK kinase activity (Mobility-Shift Assay); type: biochemical
Text: Mobility-Shift Assay, which is microfluidic chip technology, applies the basic concept of capillary electrophoresis to microfluidic environments. The substrate used for the experiment is a polypeptide with a fluorescent label. Under the action of enzyme in the reaction system, the substrate is transformed into a product, and the charge the substrate carries also changes accordingly. The use of the charge difference between the substrate and the product involved in Mobility-Shift Assay achieves the separating of the two, and they are tested respectively. The test results are expressed by conversion rates.
(3) 100% DMSO was added to the positive control well and the negative control well, respectively;

DOHH2 cells = assay: Cell proliferation inhibition in vitro, DOHH2 cells by CTG assay; type: cell-based; details: Homo sapiens, DOHH-2, 72 hours, read-out: Inhibitions of cell activities IC50 (nM) DOHH2
Description: (§1) Test Example 2: Determination of the Inhibition of Cell Proliferation Inhibitory Activity in
(§2) vitro of compounds using different cell lines
(§3) 2: Preparation of the Compounds:
(§4) The compounds to be tested were diluted with DMSO to prepare a mother liquor at a final concentration of 10 mM for later use.
3.2 Test of DOHH2 Cells by CTG Assay
(§5) Logarithmic growth phase cells were collected, counted and resuspended in complete medium. The cell concentration was adjusted to a suitable concentration (determined according to the cell density optimization test results), and seeded to 96-well plate and 100 μl of the cell suspension was added to each well. The cells were incubated in an incubator at 37° C., 100% relative humidity and 5% C02 for 24 hours.
The compounds to be tested were diluted with the medium to the set corresponding action concentration, and the cells were added at 10 µl/well. The cells were incubated in an incubator set at 37° C., 100% relative humidity and 5% C02 for 72 hours.
The medium was aspirated and discarded, and 30 μl of test reagent was added. The plate was gentle shaken away from the light to lyse the cells.
(§6) As: OA of the sample (cell+test reagent+test compound)
(§7) Ac: OA of the negative control (cell+test reagent+DMSO)
(§8) Ab: OA of the positive control (medium+test reagent+DMSO)
(§9) IC50 curve fitting was performed using the software Graphpad Prism 5 or XLfit and IC50 values were calculated.

TMD8 cells = assay: Cell proliferation inhibition in vitro, TMD8 cells by CCK-8 method; type: cell-based; details: Homo sapiens, 72 hours, read-out: Inhibitions of cell activities IC50 (nM) TMD8
Description: as §1, §2, §3, §4
(§10) 3.1. Test of TMD8 and OCI-ly10 Cells by CCK-8 Method
as §5
(§11) The compounds to be tested were diluted with the medium to the set corresponding action concentration, and the cells were added at 25 µl/well. The cells were incubated in an incubator at 37° C., 100% relative humidity and 5% C02 for 72 hours.
(§12) The medium was aspirated and discarded, and a complete medium containing 10% of the test reagent was added and the obtained system was incubated in a 37° C. incubator for 1 hour-4 hours.
as §6, §7, §8, §9

OCI-LY10 cells = assay: Cell proliferation inhibition in vitro, OCI-ly10 cells by CCK-8 method; type: cell-based; details: Homo sapiens, 72 hours, read-out: Inhibitions of cell activities IC50 (nM) OCI-LY10
Description: as §1, §2, §3, §4, §10, §5, §11, §12, §6, §7, §8, §9

Sequence of BTK kinase (Q06187 whole entry): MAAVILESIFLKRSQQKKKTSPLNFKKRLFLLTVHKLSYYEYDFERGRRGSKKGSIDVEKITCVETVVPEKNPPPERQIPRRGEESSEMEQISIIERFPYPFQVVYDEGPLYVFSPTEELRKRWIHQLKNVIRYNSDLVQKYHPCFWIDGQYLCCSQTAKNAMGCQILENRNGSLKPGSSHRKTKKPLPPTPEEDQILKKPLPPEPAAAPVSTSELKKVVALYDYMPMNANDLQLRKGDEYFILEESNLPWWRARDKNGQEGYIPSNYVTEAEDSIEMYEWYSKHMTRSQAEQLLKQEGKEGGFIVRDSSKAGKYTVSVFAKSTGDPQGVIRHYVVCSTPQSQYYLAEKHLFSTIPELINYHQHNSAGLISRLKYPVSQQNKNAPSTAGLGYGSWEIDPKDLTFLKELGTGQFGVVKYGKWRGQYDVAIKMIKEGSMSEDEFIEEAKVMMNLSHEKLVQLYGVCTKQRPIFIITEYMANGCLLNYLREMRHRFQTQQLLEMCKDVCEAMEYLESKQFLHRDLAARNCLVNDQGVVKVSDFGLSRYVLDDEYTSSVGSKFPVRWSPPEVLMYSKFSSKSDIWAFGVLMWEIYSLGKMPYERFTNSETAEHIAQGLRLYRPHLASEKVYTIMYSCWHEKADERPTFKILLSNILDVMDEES

SMILES: CC#CC(=O)N1C2CCC1(c1nc(-c3ccc(Oc4ccccc4)cc3)c3c(N)nccn13)COC2 (centres unmarked) [Example 105]
- IC50 (BTK kinase): 18 nM
- IC50 (DOHH2 cells): 916 nM
- IC50 (TMD8 cells): 8.4 nM
- IC50 (OCI-LY10 cells): 0.41 nM

SMILES: CC#CC(=O)N1CC2(CC2)C[C@H]1c1nc(-c2ccc(C(=O)Nc3ccccn3)cc2)c2c(N)nccn12 [Example 1, (S)-4-(8-amino-3-(5-(but-2-ynoyl)-5-azaspiro[2.4]heptan-6-yl)imidazo[1,5-a]pyrazin-1-yl)-N-(pyridin-2-yl)benzamide]
- IC50 (BTK kinase): 83 nM
- IC50 (DOHH2 cells): > 1000 nM

SMILES: C=CC(=O)N1C2CCC1(c1nc(-c3ccc(Oc4ccccc4)cc3)c3c(N)nccn13)COC2 (centres unmarked) [Example 104]
- IC50 (BTK kinase): 4.6 nM
- IC50 (DOHH2 cells): 718 nM
- IC50 (TMD8 cells): 3.6 nM
- IC50 (OCI-LY10 cells): 0.42 nM

SMILES: CC#CC(=O)N1CC2CCC1(c1nc(-c3ccc(C(=O)Nc4ccccn4)cc3)c3c(N)nccn13)C2 (centres unmarked) [Example 123, 4-(8-amino-3-(2-(but-2-ynoyl)-2-azabicyclo[2.2.1]heptan-1-yl)imidazo[1,5-a]pyrazin-1-yl)-N-(pyridin-2-yl)benzamide]
- IC50 (BTK kinase): 72 nM

SMILES: CC#CC(=O)N1CCC2CC21c1nc(-c2ccc(C(=O)Nc3ccccn3)cc2)c2c(N)nccn12 (centres unmarked) [Example 33]
- IC50 (BTK kinase): 94 nM

SMILES: CC#CC(=O)N1CCC2CC21c1nc(-c2ccc(C(=O)Nc3cc(C(F)(F)F)ccn3)cc2)c2c(N)nccn12 (centres unmarked) [Example 59]
- IC50 (BTK kinase): 97 nM

SMILES: CC#CC(=O)N1CCC2CC21c1nc(-c2ccc(Oc3ccccc3)cc2)c2c(N)nccn12 (centres unmarked) [Example 103]
- IC50 (BTK kinase): 271 nM

SMILES: CC#CC(=O)N1C[C@@H]2C[C@]1(c1nc(-c3ccc(C(=O)Nc4ccccn4)cc3)c3c(N)nccn13)CCO2 [Example 8]
- IC50 (BTK kinase): 197 nM

SMILES: CC(C)/C=C(/C#N)C(=O)N1CC2CCCC2[C@H]1c1nc(-c2ccc(C(=O)Nc3ccccn3)cc2)c2c(N)nccn12 (stereo partly drawn) [Example 117, 4-(8-amino-3-((1S)-2-((Z)-2-cyano-4-methyl-2-pentenoyl)octahydrocyclopenta [c]pyrrol-1-yl)imidazo[1,5-a]pyrazin-1-yl)-N-(pyridin-2-yl)benzamide]
- IC50 (BTK kinase): 104 nM

SMILES: CC#CC(=O)N1CCC2(CC2c2nc(-c3ccc(C(=O)Nc4ccccn4)cc3)c3c(N)nccn23)C1 (centres unmarked) [Example 31]
- IC50 (BTK kinase): 736 nM

SMILES: C=CC(=O)N1CC2C[C@H]1C(c1nc(-c3ccc(C(=O)Nc4ccccn4)cc3)c3c(N)nccn13)N2 (some centres unmarked) [Example 19]
- IC50 (BTK kinase): 400 nM

SMILES: C=CC(=O)N1C(c2nc(-c3ccc(C(=O)Nc4ccccn4)cc3)c3c(N)nccn23)CC2CC21 (centres unmarked) [Example 24]
- IC50 (BTK kinase): 176 nM

SMILES: CC#CC(=O)N1C2CN[C@@H](C2)C1c1nc(-c2ccc(C(=O)Nc3cc(C)ccn3)cc2)c2c(N)nccn12 (some centres unmarked) [Example 67]
- IC50 (BTK kinase): 69 nM
- IC50 (DOHH2 cells): > 1000 nM

SMILES: CN(C/C=C/C(=O)N1CC2(CC2)C[C@H]1c1nc(-c2ccc(C(=O)Nc3ccccn3)cc2)c2c(N)nccn12)C1CC1 [Example 114, (S,E)-4-(8-amino-3-(5-(4-(cyclopropyl(methyl)amino)-2-butenoyl)-5-azaspiro[2.4]heptan-6-yl)imidazo[1,5-a]pyrazin-1-yl)-N-(pyridin-2-yl)benzamide]
- IC50 (BTK kinase): 81 nM

SMILES: C=CC(=O)N1C(c2nc(-c3ccc(C(C)(O)c4ccccc4)cc3)c3c(N)nccn23)CC2CC21 (centres unmarked) [Example 81]
- IC50 (BTK kinase): 178 nM

SMILES: CC#CC(=O)N1CC2(CC2)C[C@H]1c1nc(-c2ccc(C(=O)Nc3cc(C(F)(F)F)ccn3)cc2)c2c(N)nccn12 [Example 40, (S)-4-(8-amino-3-(5-(but-2-ynoyl)-5-azaspiro[2.4]heptan-6-yl)imidazo[1,5-a]pyrazin-1-yl 1)-N-(4-(trifluoromethyl)pyridin-2-yl)benzamide]
- IC50 (BTK kinase): 97 nM

SMILES: C=CC(=O)N1C(c2nc(-c3ccc(C(=O)Nc4cc(C(F)(F)F)ccn4)cc3)c3c(N)nccn23)CC2CC21 (centres unmarked) [Example 50]
- IC50 (BTK kinase): 69 nM

SMILES: CC(C)/C=C(/C#N)C(=O)N1CC2(CC2)C[C@H]1c1nc(-c2ccc(C(=O)Nc3ccccn3)cc2)c2c(N)nccn12 [Example 116, (S,Z)-4-(8-amino-3-(5-(2-cyano-4-methyl-2-pentenoyl)-5-azaspiro [2.4]heptan-6-yl)imidazo[1,5-a]pyrazin-1-yl)-N-(pyridin-2-yl)benzamide]
- IC50 (BTK kinase): 276 nM

SMILES: CC#CC(=O)NC12CC3CC(C1)CC(c1nc(-c4ccc(C(=O)Nc5ccccn5)cc4)c4c(N)nccn14)(C3)C2 [Example 29]
- IC50 (BTK kinase): 216 nM

SMILES: CC#CC(=O)N1C(c2nc(-c3ccc(C(=O)Nc4ccccn4)cc3)c3c(N)nccn23)CC2CC21 (centres unmarked) [Example 25]
- IC50 (BTK kinase): 342 nM

Further molecules by falling IC50 (BTK kinase), results first:

- IC50 (BTK kinase): 68 nM
SMILES: CC#CC(=O)N1CC2COC[C@]2(c2nc(-c3ccc(C(=O)Nc4ccccn4)cc3)c3c(N)nccn23)C1 (some centres unmarked) [Example 39]

- IC50 (BTK kinase): 67 nM
SMILES: C=CC(=O)N1C(c2nc(-c3ccc(Oc4ccccc4)cc3)c3c(N)nccn23)CC2CC21 (centres unmarked) [Example 100]

- IC50 (BTK kinase): 66 nM
SMILES: C=CC(=O)N1CC2COC[C@]2(c2nc(-c3ccc(C(=O)Nc4ccccn4)cc3)c3c(N)nccn23)C1 (some centres unmarked) [Example 38]

- IC50 (BTK kinase): 57 nM
SMILES: C=CC(=O)N1CCC2CC21c1nc(-c2ccc(C(=O)Nc3ccccn3)cc2)c2c(N)nccn12 (centres unmarked) [Example 32]
- IC50 (DOHH2 cells): > 1000 nM

- IC50 (BTK kinase): 54 nM
SMILES: CC#CC(=O)N1C(c2nc(-c3ccc(C(=O)Nc4cc(C(F)(F)F)ccn4)cc3)c3c(N)nccn23)CC2CC21 (centres unmarked) [Example 51]

- IC50 (BTK kinase): 52 nM
SMILES: C=CC(=O)N1CC2(CC2)C[C@H]1c1nc(-c2ccc(C(=O)Nc3cc(C(F)(F)F)ccn3)cc2)c2c(N)nccn12 [Example 41, (S)-4-(3-(5-acryloyl-5-azaspiro[2.4]heptan-6-yl)-8-aminoimidazo[1,5-a]pyrazin-1-yl)-N-(4-(trifluoromethyl)pyridin-2-yl)benzamide]

- IC50 (BTK kinase): 51 nM
SMILES: C=CC(=O)N1C2C[C@@H](C1c1nc(-c3ccc(C(C)(O)c4ccccc4)cc3)c3c(N)nccn13)N(C)C2 (some centres unmarked) [Example 88]

- IC50 (BTK kinase): 51 nM
SMILES: C=CC(=O)N1C[C@H]2[C@@H]([C@H]1c1nc(-c3ccc(C(=O)Nc4cc(C)ccn4)cc3)c3c(N)nccn13)C2(C)C [Example 60]

- IC50 (BTK kinase): 48 nM
SMILES: CC#CC(=O)N1C2C[C@@H](C1c1nc(-c3ccc(C(=O)Nc4ccccn4)cc3)c3c(N)nccn13)N(C(C)C)C2 (some centres unmarked) [Example 17]
- IC50 (DOHH2 cells): > 1000 nM

- IC50 (BTK kinase): 46 nM
SMILES: CC#CC(=O)N1C[C@H]2[C@@H]([C@H]1c1nc(-c3ccc(C(C)(O)c4ccccc4)cc3)c3c(N)nccn13)C2(C)C (some centres unmarked) [Example 76]

- IC50 (BTK kinase): 43 nM
SMILES: CC#CC(=O)N1CC2CCC1(c1nc(-c3ccc(C(=O)Nc4ccccn4)cc3)c3c(N)nccn13)CC2 [Example 121, 4-(8-amino-3-(2-(but-2-ynoyl)-2-azabicyclo[2.2.2]octan-1-yl)imidazo[1,5-a]pyrazin-1-yl)-N-(pyridin-2-yl)benzamide]

- IC50 (BTK kinase): 42 nM
SMILES: CC#CC(=O)N1C2CN[C@@H](C2)C1c1nc(-c2ccc(C(C)(O)c3ccccc3)cc2)c2c(N)nccn12 (some centres unmarked) [Example 87]
- IC50 (DOHH2 cells): 786 nM

- IC50 (BTK kinase): 34 nM
SMILES: C=CC(=O)N1C2CN[C@@H](C2)C1c1nc(-c2ccc(C(=O)Nc3cc(C)ccn3)cc2)c2c(N)nccn12 (some centres unmarked) [Example 66]
- IC50 (DOHH2 cells): > 1000 nM

- IC50 (BTK kinase): 31 nM
SMILES: CC#CC(=O)N1C[C@H]2[C@@H]([C@H]1c1nc(-c3ccc(C(=O)Nc4cc(C)ccn4)cc3)c3c(N)nccn13)C2(C)C [Example 61]

- IC50 (BTK kinase): 29 nM
SMILES: C=CC(=O)N1C2CN[C@@H](C2)C1c1nc(-c2ccc(C(C)(O)c3ccccc3)cc2)c2c(N)nccn12 (some centres unmarked) [Example 86]
- IC50 (DOHH2 cells): 917 nM

- IC50 (BTK kinase): 24 nM
SMILES: C=CC(=O)N1CC2(CC2)C[C@H]1c1nc(-c2ccc(C(=O)Nc3ccccn3)cc2)c2c(N)nccn12 [Example 2, (S)-4-(3-(5-acryloyl-5-azaspiro[2.4]heptan-6-yl)-8-aminoimidazo[1,5-a]pyrazin-1-yl)-N-(pyridin-2-yl)benzamide]
- IC50 (DOHH2 cells): 917 nM

- IC50 (BTK kinase): 19 nM
- IC50 (OCI-LY10 cells): 0.31 nM
SMILES: C=CC(=O)N1C2C[C@@H](C1c1nc(-c3ccc(Oc4ccccc4)cc3)c3c(N)nccn13)N(C(C)C)C2 (some centres unmarked) [Example 109]
- IC50 (DOHH2 cells): 184 nM
- IC50 (TMD8 cells): 7.2 nM

- IC50 (BTK kinase): 4.5 nM
- IC50 (OCI-LY10 cells): 3.5 nM
SMILES: CC#CC(=O)N1CC2CCCC2C1c1nc(-c2ccc(C(=O)Nc3ccccn3)cc2)c2c(N)nccn12 (centres unmarked) [Example 4]
- IC50 (DOHH2 cells): 673 nM
- IC50 (TMD8 cells): 2.1 nM

- IC50 (BTK kinase): 4.4 nM
- IC50 (OCI-LY10 cells): 0.42 nM
SMILES: CC#CC(=O)N1CC2CCCC2C1c1nc(-c2ccc(C(=O)Nc3cc(C(F)(F)F)ccn3)cc2)c2c(N)nccn12 (centres unmarked) [Example 43]
- IC50 (DOHH2 cells): 217 nM
- IC50 (TMD8 cells): 2.3 nM
